Measurements reported in the NIST ThermoML archive (doi:10.1016/j.jct.2007.05.011).
Numbers after ± are expanded uncertainties.

Test: xn = mol fraction of the nth substance listed
Settings: 101 kPa, Liquid; for mass density: Vibrating tube method

NCCO.O=CO [2-hydroxyethylammonium formate] + O
Settings	mass density [kg/m3]	speed of sound [m/s]
288.15 K, x2 = 0	1183.57 ± 31	1733.9 ± 9.9
288.15 K, x2 = 0.047	1182.89 ± 31	1759.2 ± 9.9
288.15 K, x2 = 0.108	1181.45 ± 31	1760.3 ± 9.7
288.15 K, x2 = 0.199	1178.55 ± 30	1761.4 ± 9.6
288.15 K, x2 = 0.311	1173.68 ± 30	1761.4 ± 9.3
288.15 K, x2 = 0.4	1168.78 ± 30	1759.7 ± 9.2
288.15 K, x2 = 0.492	1162.23 ± 30	1757.1 ± 9
288.15 K, x2 = 0.601	1151.56 ± 30	1749.9 ± 8.9
288.15 K, x2 = 0.699	1137.39 ± 30	1739.3 ± 8.7
288.15 K, x2 = 0.8	1114.92 ± 30	1710.8 ± 8.5
288.15 K, x2 = 0.9	1076.21 ± 30	1644.7 ± 8.2
288.15 K, x2 = 0.95	1045.03 ± 30	1578.9 ± 8
290.65 K, x2 = 0	1181.81 ± 31	1727.4 ± 9.9
290.65 K, x2 = 0.047	1181.24 ± 31	1754 ± 9.8
290.65 K, x2 = 0.108	1179.79 ± 31	1755.5 ± 9.7
290.65 K, x2 = 0.199	1176.92 ± 30	1756.4 ± 9.5
290.65 K, x2 = 0.311	1172.05 ± 30	1756.7 ± 9.3
290.65 K, x2 = 0.4	1167.17 ± 30	1755.1 ± 9.2
290.65 K, x2 = 0.492	1160.63 ± 30	1752.9 ± 9
290.65 K, x2 = 0.601	1149.99 ± 30	1746.3 ± 8.8
290.65 K, x2 = 0.699	1135.87 ± 30	1736.3 ± 8.7
290.65 K, x2 = 0.8	1113.52 ± 30	1709.2 ± 8.5
290.65 K, x2 = 0.9	1075.06 ± 30	1645.8 ± 8.2
290.65 K, x2 = 0.95	1044.13 ± 30	1582.3 ± 7.9
293.15 K, x2 = 0	1180.04 ± 31	1721.3 ± 9.8
293.15 K, x2 = 0.047	1179.6 ± 31	1748.9 ± 9.8
293.15 K, x2 = 0.108	1178.13 ± 30	1750.5 ± 9.7
293.15 K, x2 = 0.199	1175.29 ± 30	1751.4 ± 9.5
293.15 K, x2 = 0.311	1170.43 ± 30	1752 ± 9.3
293.15 K, x2 = 0.4	1165.55 ± 30	1750.6 ± 9.1
293.15 K, x2 = 0.492	1159.04 ± 30	1748.7 ± 9
293.15 K, x2 = 0.601	1148.42 ± 30	1742.6 ± 8.8
293.15 K, x2 = 0.699	1134.35 ± 30	1733.3 ± 8.7
293.15 K, x2 = 0.8	1112.1 ± 30	1707.5 ± 8.5
293.15 K, x2 = 0.9	1073.89 ± 30	1646.8 ± 8.2
293.15 K, x2 = 0.95	1043.2 ± 30	1585.6 ± 8
295.65 K, x2 = 0	1178.27 ± 31	1715.1 ± 9.8
295.65 K, x2 = 0.047	1177.95 ± 31	1743.8 ± 9.8
295.65 K, x2 = 0.108	1176.52 ± 30	1745.4 ± 9.7
295.65 K, x2 = 0.199	1173.65 ± 30	1746.5 ± 9.5
295.65 K, x2 = 0.311	1168.8 ± 30	1747.2 ± 9.3
295.65 K, x2 = 0.4	1163.94 ± 30	1746.1 ± 9.1
295.65 K, x2 = 0.492	1157.44 ± 30	1744.4 ± 9
295.65 K, x2 = 0.601	1146.85 ± 30	1738.9 ± 8.8
295.65 K, x2 = 0.699	1132.83 ± 30	1730.2 ± 8.7
295.65 K, x2 = 0.8	1110.67 ± 30	1705.6 ± 8.5
295.65 K, x2 = 0.9	1072.7 ± 30	1647.6 ± 8.2
295.65 K, x2 = 0.95	1042.26 ± 30	1588.8 ± 8
298.15 K, x2 = 0	1176.49 ± 31	1709 ± 9.8
298.15 K, x2 = 0.047	1176.31 ± 31	1738.7 ± 9.8
298.15 K, x2 = 0.108	1174.91 ± 30	1740.4 ± 9.7
298.15 K, x2 = 0.199	1172.02 ± 30	1741.6 ± 9.5
298.15 K, x2 = 0.311	1167.18 ± 30	1742.5 ± 9.3
298.15 K, x2 = 0.4	1162.32 ± 30	1741.6 ± 9.1
298.15 K, x2 = 0.492	1155.83 ± 30	1740.2 ± 9
298.15 K, x2 = 0.601	1145.28 ± 30	1735.1 ± 8.8
298.15 K, x2 = 0.699	1131.3 ± 30	1727.1 ± 8.7
298.15 K, x2 = 0.8	1109.23 ± 30	1703.7 ± 8.5
298.15 K, x2 = 0.9	1071.48 ± 30	1648.3 ± 8.2
298.15 K, x2 = 0.95	1041.28 ± 30	1591.7 ± 8
300.65 K, x2 = 0	1174.71 ± 31	1702.9 ± 9.8
300.65 K, x2 = 0.047	1174.67 ± 31	1733.6 ± 9.8
300.65 K, x2 = 0.108	1173.29 ± 30	1735.3 ± 9.7
300.65 K, x2 = 0.199	1170.39 ± 30	1736.7 ± 9.5
300.65 K, x2 = 0.311	1165.55 ± 30	1737.8 ± 9.2
300.65 K, x2 = 0.4	1160.7 ± 30	1737.1 ± 9.1
300.65 K, x2 = 0.492	1154.23 ± 30	1735.9 ± 8.9
300.65 K, x2 = 0.601	1143.7 ± 30	1731.2 ± 8.8
300.65 K, x2 = 0.699	1129.77 ± 30	1723.9 ± 8.7
300.65 K, x2 = 0.8	1107.79 ± 30	1701.8 ± 8.5
300.65 K, x2 = 0.9	1070.24 ± 30	1648.7 ± 8.2
300.65 K, x2 = 0.95	1040.27 ± 30	1594.4 ± 8
303.15 K, x2 = 0	1172.94 ± 31	1696.8 ± 9.8
303.15 K, x2 = 0.047	1173.02 ± 31	1728.5 ± 9.8
303.15 K, x2 = 0.108	1171.66 ± 30	1730.3 ± 9.6
303.15 K, x2 = 0.199	1168.76 ± 30	1731.8 ± 9.4
303.15 K, x2 = 0.311	1163.93 ± 30	1733.1 ± 9.2
303.15 K, x2 = 0.4	1159.09 ± 30	1732.6 ± 9.1
303.15 K, x2 = 0.492	1152.62 ± 30	1731.6 ± 8.9
303.15 K, x2 = 0.601	1142.12 ± 30	1727.4 ± 8.8
303.15 K, x2 = 0.699	1128.22 ± 30	1720.7 ± 8.6
303.15 K, x2 = 0.8	1106.33 ± 30	1699.7 ± 8.5
303.15 K, x2 = 0.9	1068.98 ± 30	1649 ± 8.2
303.15 K, x2 = 0.95	1039.22 ± 30	1596.8 ± 8
305.65 K, x2 = 0	1171.16 ± 31	–
305.65 K, x2 = 0.047	1171.38 ± 31	–
305.65 K, x2 = 0.108	1170.03 ± 30	–
305.65 K, x2 = 0.199	1167.12 ± 30	–
305.65 K, x2 = 0.311	1162.3 ± 30	–
305.65 K, x2 = 0.4	1157.47 ± 30	–
305.65 K, x2 = 0.492	1151.02 ± 30	–
305.65 K, x2 = 0.601	1140.53 ± 30	–
305.65 K, x2 = 0.699	1126.67 ± 30	–
305.65 K, x2 = 0.8	1104.86 ± 30	–
305.65 K, x2 = 0.9	1067.69 ± 30	–
305.65 K, x2 = 0.95	1038.12 ± 30	–
